Non-standard residues stand in square brackets, D forms with d. Residues, ends and D or L forms follow the SMILES beside them. Nle = CCCC[C@H](N)C(=O)O; dAbu = CC[C@@H](N)C(=O)O

One test addresses human MC4R (Homo sapiens, UniProt P32245). The test is described as follows: Intracellular cAMP levels in live cells, MC3R selectivity relative to MC4R. The note with it: cAMP assays in human MC3R and human MC4R stable cell lines. The test is classed as cell-based. (In general: Changes in cAMP serve as a functional read-out for many G protein-coupled receptors.)
The next test has as its target T1, human MC3R (Homo sapiens, UniProt P41968).
T1 construct: expressed in transfected cells
The test is described as follows: Intracellular cAMP levels in live cells, MC3R agonist activity. Particulars: cAMP split-luciferase reporter cell line stably expressing human MC3R; direct agonist effect, measurement window 1. The test is classed as cell-based. The method, then: The stable cell lines were grown and maintained in selection media consisting of Dulbecco's modified Eagle media (DMEM) with 4.5 g/l D-glucose, and 4 mM L-glutamine (Thermo Fisher Scientific, Waltham, MA), supplemented with 10% fetal bovine serum, 100 units/ml penicillin, 100 μg/ml streptomycin, 2.5 μg/ml amphotericin B, 200 μg/ml hygromycin B (for positive selection of the GScAMP22f luciferase reporter), and Geneticin™ (G418) 700 μg/ml (for MC3R or MC4R selection). Actual serum concentration during the assay is estimated to be about 1%. Cell line identity is routinely verified by qPCR and MC3R- and MC4R-specific oligonucleotides.
The assay for the determination of the CAMP response in live cells was described previously. […] Ccells were seeded at a density of 20,000 cells per well using 384-well poly-D lysine-coated, clear bottom, and black-wall assay plates (Corning Inc. Corning, NJ). Cells were allowed to attach to the plates for 18 to 24 h after which growth media was removed and 20 ul of 4% D-luciferin (Promega) in CO2 independent, serum-free medium (Thermo Fisher Scientific) was added to each well. […] Intracellular cAMP levels were measured using an FDSS 7000EX Functional Drug Screening System (Hamamatsu Photonics, Hamamatsu, Japan) in the Center for Chemical Genomics at the Life Sciences Institute. This instrument allowed the in-line addition of test-peptides and receptor agonists while simultaneously acquiring the luminescence signal from live cells. […] A submaximal forskolin (20 μM) concentration was also included to serve as a normalization reference to account for cell number variations and differences in assay transducer efficiency between cell lines.
With this set up it was possible to evaluate the direct agonist effect of the test-peptides on the MC3R and MC4R cell lines during measurement window 1, while the antagonist profile in the presence of EC90 α-MSH was determined on measurement window 2. […] EC50 or IC50 potency values were determined by non-linear regression by fitting the data to a sigmoid four-parameter variable slope model using the GraphPad Prism version 8.4 software package (San Diego CA).

T1 sequence (P41968 whole entry): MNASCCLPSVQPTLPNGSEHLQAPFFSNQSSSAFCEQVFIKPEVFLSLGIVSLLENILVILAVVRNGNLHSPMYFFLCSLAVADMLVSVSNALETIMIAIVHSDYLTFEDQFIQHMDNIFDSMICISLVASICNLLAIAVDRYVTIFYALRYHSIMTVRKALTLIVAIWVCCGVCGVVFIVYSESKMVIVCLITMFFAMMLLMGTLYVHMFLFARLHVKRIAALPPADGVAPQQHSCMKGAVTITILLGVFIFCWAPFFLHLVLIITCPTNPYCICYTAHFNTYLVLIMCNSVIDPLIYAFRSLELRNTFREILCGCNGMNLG
human MC4R, sequence (P32245 whole entry): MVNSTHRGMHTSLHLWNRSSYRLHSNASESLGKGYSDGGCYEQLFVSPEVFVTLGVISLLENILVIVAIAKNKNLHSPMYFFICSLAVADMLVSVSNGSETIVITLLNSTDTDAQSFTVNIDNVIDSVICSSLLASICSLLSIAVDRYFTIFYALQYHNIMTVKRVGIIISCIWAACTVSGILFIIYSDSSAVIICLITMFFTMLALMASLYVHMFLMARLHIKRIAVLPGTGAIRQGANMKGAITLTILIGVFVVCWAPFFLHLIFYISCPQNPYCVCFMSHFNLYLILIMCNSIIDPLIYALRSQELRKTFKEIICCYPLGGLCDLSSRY

By EC50 is commonly meant the concentration at which the effect is half-maximal. On to `CCCC[C@H](NC(=O)[C@@H](NC(=O)[C@@H](N)Cc1ccc(O)cc1)C(C)C)C(=O)N[C@H](CC)C(=O)N[C@@H](Cc1c[nH]cn1)C(=O)N[C@@H](Cc1ccccc1)C(=O)N[C@@H](CCCNC(=N)N)C(=O)N[C@H](Cc1c[nH]c2ccccc12)C(=O)N[C@@H](CC(=O)O)C(N)=O` [CTX-1131, Tyr-Val-Nle-D-Abu-His-Phe-Arg-D-Trp-Asp] (H-YV[Nle][dAbu]HFR[dW]D-NH2), for which the “MC3R selectivity (relative to MC4R)” value at human MC4R was determined as 65. This compound also yielded an EC50 at human MC3R of 6.6 nM.

As for `CCCC[C@H](NC(=O)CNC(=O)COCCOCCNC(=O)CNC(=O)CCc1ccc(I)cc1)C(=O)N[C@H](C)C(=O)N[C@@H](Cc1c[nH]cn1)C(=O)N[C@@H](Cc1ccccc1)C(=O)N[C@@H](CCCNC(=N)N)C(=O)N[C@H](Cc1c[nH]c2ccccc12)C(=O)N[C@@H](CC(=O)O)C(=O)N[C@@H](CCCNC(=N)N)C(=O)N[C@@H](Cc1ccccc1)C(=O)NCC(=O)O` [CTX-1148, Gly-Nle-D-Ala-His-Phe-Arg-D-Trp-Asp-Arg-Phe-Gly], the “MC3R selectivity (relative to MC4R)” value on human MC4R is recorded as 1197. This compound also yielded an EC50 at human MC3R of 1.5 nM.

For `CC(C)[C@H](NC(=O)[C@@H](N)Cc1ccc(O)cc1)C(=O)N[C@@H](CCC(=O)O)C(=O)N[C@H](C)C(=O)N[C@@H](Cc1c[nH]cn1)C(=O)N[C@H](Cc1ccccc1)C(=O)N[C@@H](CCCNC(=N)N)C(=O)N[C@H](Cc1c[nH]c2ccccc12)C(=O)N[C@@H](CC(=O)O)C(=O)N[C@@H](CCCNC(=N)N)C(=O)N[C@@H](Cc1ccccc1)C(=O)NCC(=O)O` [CTX-1106, Tyr-Val-Glu-D-Ala-His-D-Phe-Arg-D-Trp-Asp-Arg-Phe-Gly] (H-YVE[dA]H[dF]R[dW]DRFG-OH), the “MC3R selectivity (relative to MC4R)” value on human MC4R is 120. Besides, it took 5.8 nM to reach a half-maximal effect on human MC3R (EC50).

In the case of `CCCC[C@H](NC(C)=O)C(=O)N[C@H](C)C(=O)N[C@@H](Cc1c[nH]cn1)C(=O)N[C@@H](Cc1ccccc1)C(=O)N[C@@H](CCCNC(=N)N)C(=O)N[C@H](Cc1c[nH]c2ccccc12)C(=O)N[C@@H](CC(=O)O)C(=O)N[C@@H](CCCNC(=N)N)C(=O)N[C@@H](Cc1ccccc1)C(=O)NCC(=O)O` [CTX-1122, Nle-D-Ala-His-Phe-Arg-D-Trp-Asp-Arg-Phe-Gly] (Ac-[Nle][dA]HFR[dW]DRFG-OH), at human MC4R, the “MC3R selectivity (relative to MC4R)” value was 7,703. For the same compound, on human MC3R, the half-maximal effective concentration (EC50) was 1.2 nM.

For the compound `CCCC[C@H](NC(C)=O)C(=O)N[C@H](C)C(=O)N[C@@H](Cc1c[nH]cn1)C(=O)N[C@@H](Cc1ccccc1)C(=O)N[C@@H](CCCNC(=N)N)C(=O)N[C@H](Cc1c[nH]c2ccccc12)C(=O)N[C@H](Cc1ccccc1)C(=O)N[C@@H](CCCNC(=N)N)C(=O)N[C@@H](Cc1ccccc1)C(=O)NCC(=O)O` [CTX-1531, Nle-D-Ala-His-Phe-Arg-D-Trp-D-Phe-Arg-Phe-Gly] (Ac-[Nle][dA]HFR[dW][dF]RFG-OH), the “MC3R selectivity (relative to MC4R)” value at human MC4R came to 8. This compound also registered an EC50 on human MC3R of 357 nM.

`CCCC[C@H](NC(C)=O)C(=O)N[C@H](C)C(=O)N[C@@H](Cc1c[nH]cn1)C(=O)N[C@@H](Cc1ccccc1)C(=O)N[C@@H](CCCNC(=N)N)C(=O)N[C@H](Cc1c[nH]c2ccccc12)C(=O)N[C@@H](C)C(=O)N[C@@H](CCCNC(=N)N)C(=O)N[C@@H](Cc1ccccc1)C(=O)NCC(=O)O` [CTX-1528, Nle-D-Ala-His-Phe-Arg-D-Trp-Ala-Arg-Phe-Gly] (Ac-[Nle][dA]HFR[dW]ARFG-OH): the “MC3R selectivity (relative to MC4R)” value on human MC4R is listed as 182. Besides, the response on human MC3R was half-maximal at 1.9 nM (EC50).

With `CCCC[C@H](NC(=O)[C@@H](NC(=O)[C@@H](N)Cc1ccc(O)cc1)C(C)C)C(=O)N[C@H](Cc1ccccc1)C(=O)N[C@@H](Cc1c[nH]cn1)C(=O)N[C@@H](Cc1ccccc1)C(=O)N[C@@H](CCCNC(=N)N)C(=O)N[C@H](Cc1c[nH]c2ccccc12)C(=O)N[C@@H](CC(=O)O)C(N)=O` [CTX-1132, Tyr-Val-Nle-D-Phe-His-Phe-Arg-D-Trp-Asp] (H-YV[Nle][dF]HFR[dW]D-NH2), the “MC3R selectivity (relative to MC4R)” value on human MC4R was 6.8. The compound further came in with an EC50 on human MC3R of 3.9 nM.
